In patent US7232912B2, “Indazole compounds, pharmaceutical compositions, and methods for mediating or inhibiting cell proliferation” (Agouron Pharmaceuticals, Inc., priority 2000, dated 2007):
Where two headings read alike, the source gives them in different places.

What was measured:
CDK2/cyclin A = target: T1, CDK2/cyclin A (Homo sapiens, UniProt P24941); assay: Inhibition of CDK2/Cyclin A Retinoblastoma Kinase Activity; format: biochemical; conditions: for Ki: apparent Ki; for inhibition at 10 µM: read-out: CDK2/A % inhibition at 10 μM
T1 construct: made in house; host or cells: CDK2: insect cells (baculovirus); cyclin A: E. coli
Procedure: (§1) Cyclin-dependent kinase activity was measured by quantifying the enzyme-catalyzed, time-dependent incorporation of radioactive phosphate from [^32P]ATP or [^33P]ATP into a protein substrate. Unless noted otherwise, assays were performed in 96-well plates in a total volume of 50 μL, in the presence of 10 mM HEPES (N-[2-hydroxyethyl]piperazine-N′-[2-ethanesulfonic acid]) (pH 7.4), 10 mM MgCl2, 25 μM adenosine triphosphate (ATP), 1 mg/mL ovalbumin, 5 μg/mL leupeptin, 1 mM dithiothreitol, 10 mM beta-glycerophosphate, 0.1 mM sodium vanadate, 1 mM sodium fluoride, 2.5 mM ethylene glycol-bis(β-aminoethyl ethKer)-N,N,N′N′-tetraacetic acid (EGTA), 2% (v/v) dimethylsulfoxide, and 0.03–0.4 μCi [^32/33P]ATP per reaction. Reactions were initiated with appropriate enzyme, incubated at 30° C., and terminated after 20 minutes by the addition of ethylenediaminetetraacetic acid (EDTA) to 250 mM. The phosphorylated substrate was then captured on a nitrocellulose or phosphocellulose membrane using a 96-well filtration manifold, and unincorporated radioactivity was removed by repeated washing with 0.85% phosphoric acid. Radioactivity was quantified by exposing the dried membranes to a phosphorimager.
(§2) Apparent Ki values were measured by assaying enzyme activity in the presence of different inhibitor compound concentrations and subtracting the background radioactivity measured in the absence of enzyme. Inhibition data were fit to an equation for competitive inhibition using Kaleidagraph (Synergy Software), or were fit to an equation for competitive tight-binding inhibition using the software KineTic (BioKin, Ltd.).
Inhibition of CDK2/Cyclin A Retinoblastoma Kinase Activity
CDK2 was purified using published methodology (Rosenblatt et al., “Purification and Crystallization of Human Cyclin-dependent Kinase 2,” J. Mol. Biol., vol. 230, 1993, pp. 1317–1319) from insect cells that had been infected with a baculovirus expression vector. […] A complex of CDK2 and proteolyzed cyclin A was prepared and purified by gel filtration. The substrate for this assay was the same Rb substrate fragment used for the CDK4 assays, and the methodology of the CDK2/cyclin A and the CDK4/cyclin D3 assays was essentially the same, except that CDK2 was present at 150 nM or 5 nM. Ki values were measured as described above.

CDK4/cyclin D3 = CDK4/cyclin D3 (Homo sapiens, UniProt P11802); assay: Inhibition of CDK4/Cyclin D Retinoblastoma Kinase Activity; format: biochemical; conditions: for Ki: apparent Ki; for inhibition at 10 µM: read-out: CDK4/D % inhibition at 10 μM
CDK4/cyclin D3, sequence (P11802 2-303 limits assumed): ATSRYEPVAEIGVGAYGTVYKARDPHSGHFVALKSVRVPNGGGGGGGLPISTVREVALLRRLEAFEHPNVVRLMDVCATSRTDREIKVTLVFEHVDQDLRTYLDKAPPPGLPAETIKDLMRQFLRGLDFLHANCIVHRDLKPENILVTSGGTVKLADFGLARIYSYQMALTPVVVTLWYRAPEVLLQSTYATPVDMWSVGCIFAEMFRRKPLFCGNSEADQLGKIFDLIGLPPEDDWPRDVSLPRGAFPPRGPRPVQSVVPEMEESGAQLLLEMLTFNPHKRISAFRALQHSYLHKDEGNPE
CDK4/cyclin D3, sequence (P30281 1-264 limits assumed, further chain): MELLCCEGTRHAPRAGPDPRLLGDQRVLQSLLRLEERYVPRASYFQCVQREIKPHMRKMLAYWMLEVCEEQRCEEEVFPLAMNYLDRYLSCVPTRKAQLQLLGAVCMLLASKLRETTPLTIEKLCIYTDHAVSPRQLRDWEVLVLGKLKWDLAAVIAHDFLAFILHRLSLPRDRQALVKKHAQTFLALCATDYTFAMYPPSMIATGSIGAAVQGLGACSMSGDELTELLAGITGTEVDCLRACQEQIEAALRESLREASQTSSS
Procedure: as §1, §2
Inhibition of CDK4/Cyclin D Retinoblastoma Kinase Activity
A complex of human CDK4 and cyclin D3, or a complex of human CDK4 and genetically truncated (1–264) cyclin D3, was purified using traditional biochemical chromatographic techniques from insect cells that had been co-infected with the corresponding baculovirus expression vectors (see e.g., Meijer and Kim, “Chemical Inhibitors of Cyclin-Dependent Kinases,” Methods in Enzymol,. vol. 283 (1997), pp. 113–128.). The enzyme complex (5 or 50 nM) was assayed with 0.3–0.5 μg of purified recombinant retinoblastoma protein fragment (Rb) as a substrate. The engineered Rb fragment (residues 386–928 of the native retinoblastoma protein; 62.3 kDa) contains the majority of the phosphorylation sites found in the native 106-kDa protein, as well as a tag of six histidine residues for ease of purification. Phosphorylated Rb substrate was captured by microfiltration on a nitrocellulose membrane and quantified using a phosphorimager as described above. For measurement of tight-binding inhibitors, the enzyme complex concentration was lowered to 5 nM, and the assay duration was extended to 60 minutes, during which the time-dependence of product formation was linear.

HCT 116 cell line = assay: Inhibition of Cell Growth (MTT tetrazolium salt assay); format: cell-based; conditions: Homo sapiens
Procedure: Inhibition of Cell Growth: Assessment of Cytotoxicity
Inhibition of cell growth was measured using the tetrazolium salt assay, which is based on the ability of viable cells to reduce 3-(4,5-dimethylthiazol-2-yl)-2,5-[2H]-diphenyltetrazolium bromide (MTT) to formazan (Mossman, Journal of Immunological Methods, vol. 65 (1983), pp. 55–58). The water-insoluble purple formazan product was then detected spectrophotometrically. The HCT 116 cell line was grown in 96-well plates. Cells were plated in the appropriate medium at a volume of 135 μl/well in McCoy's 5A Medium. Plates were incubated for four hours before addition of inhibitor compounds. Different concentrations of inhibitor compounds were added in 0.5% (v/v) dimethylsulfoxide (15 μL/well), and cells were incubated at 37° C. (5% CO2) for four to six days (depending on cell type). At the end of the incubation, MTT was added to a final concentration of 0.2 mg/mL, and cells were incubated for 4 hours more at 37° C. After centrifugation of the plates and removal of medium, the absorbance of the formazan (solubilized in dimethylsulfoxide) was measured at 540 nm. The concentration of inhibitor compound causing 50% inhibition of growth was determined from the linear portion of a semi-log plot of inhibitor concentration versus percentage inhibition. All results were compared to control cells treated only with 0.5% (v/v) dimethylsulfoxide.

[1] = HCT 116, MTT, 50% inhibition of growth, read-out: HCT 116 IC50
[2] = HCT 116, MTT, IC90, read-out: HCT 116 IC90

SMILES	Ki (CDK2/cyclin A) [nM]	Ki (CDK4/cyclin D3) [nM]	further results
Oc1ccc(-c2ccc3[nH]nc(-c4nc5ccccc5[nH]4)c3c2)cc1 [8′, 4-[3-(1H-Benzoimidazol-2-yl)-1H-indazol-5-yl]-phenol]	370	590	–
O=[N+]([O-])c1ccc2[nH]nc(-c3ccc[nH]3)c2c1 [18b′, 5-Nitro-3-(2-Pyrrolyl)-1H-indazole]	3300	6600	–
C(=C\c1ccc2[nH]nc(/C=C/c3ccccc3)c2c1)/c1ccccc1 [Example 2, 3,5-Distyryl-1H-Indazole]	–	7900	–
COc1ccc(-c2ccc3[nH]nc(-c4nc5ccccc5[nH]4)c3c2)cc1 [Example 7′, 3-(1H-Benzoimidazol-2-yl)-5-(4-methoxyphenyl)-1H-indazole]	790	1200	–
COc1cccc(-c2ccc3[nH]nc(-c4nc5ccccc5[nH]4)c3c2)c1C [Example 9′, 3-(1H-Benzoimidazol-2-yl)-5-(3-methoxy-2-methyl-phenyl)-1H-indazole]	670	2200	–
Cc1ccccc1-c1ccc2[nH]nc(-c3ccccc3)c2c1 [Example 11, 5-(2-Methylphenyl)-3-phenyl-1H-indazole]	2600	–	inhibition at 10 µM (CDK4/cyclin D3): 39%
FC(F)(F)c1ccccc1-c1ccc2[nH]nc(-c3ccccc3)c2c1 [Example 12, 3-Phenyl-5-[2-(trifluormethyl)phenyl]-1H-indazole]	6300	–	CDK4/D % inhibition at 5 μM (CDK4/cyclin D3; at 5 μM): 19%
Cc1cc(O)ccc1-c1ccc2[nH]nc(-c3ccccc3)c2c1 [Example 13, 5-(4-Hydroxy-2-methylphenyl)-3-phenyl-1H-indazole]	2700	3400	–
c1ccc(-c2n[nH]c3ccc(-c4ccncc4)cc23)cc1 [Example 14, 3-Phenyl-5-(Pyrid-4-yl)-1H-indazole]	2500	2400	–
c1ccc(-c2n[nH]c3ccc(-c4cccnc4)cc23)cc1 [Example 14b, 3-Phenyl-5-(pyrid-3-yl)-1H-indazole]	–	–	inhibition at 1 µM (CDK4/cyclin D3; read-out: CDK4/D % inhibition at 1 μM): 20%
c1c[nH]c(-c2n[nH]c3ccc(-c4ccncc4)cc23)c1 [Example 18, 5-(4Pyridyl)-3-(2-Pyrrolyl)-1H-indazole]	–	960	–
Cc1c(-c2ccc3[nH]nc(-c4nc5ccccc5[nH]4)c3c2)ccc(CCCO)c1O [Example 26, 3-[3-(1H-Benzoimidazol-2-yl)-1H-indazol-5-yl]-6-(3-hydroxy-propyl)-2-methyl-phenol]	72	83	IC50 (HCT 116 cell line; [1]): 2.8 µM; IC90 (HCT 116 cell line; [2]): 5 µM
CC(C)(C)NCc1cccc2[nH]c(-c3n[nH]c4ccc(-c5cncc6ccccc56)cc34)nc12 [Example 39, tert-Butyl-[2-(5-isoquinolin-4-yl-1H-indazol-3-yl)-1H-benzoimidazol-4-ylmethyl]-amine]	1.1	9	IC50 (HCT 116 cell line; [1]): 0.018 µM; IC90 (HCT 116 cell line; [2]): 0.06 µM
c1ccc2c(-c3ccc4[nH]nc(-c5nc6c(Cn7ccnc7)cccc6[nH]5)c4c3)cncc2c1 [Example 40, 4-[3-(4-Imidazol-1-ylmethyl-1H-benzoimidazol-2-yl)-1H-indazol-5-yl]-isoquinoline]	0.38	2.2	–
Cc1cnccc1-c1ccc2[nH]nc(/C=C/c3ccccc3)c2c1 [Example 41, 5-(3-Methyl-pyridin-4-yl)-3-(E)-styryl-1H-indazole]	250	78	–
Oc1cc(F)cc(F)c1-c1ccc2[nH]nc(-c3nc4ccccc4[nH]3)c2c1 [Example 51]	400	1100	–
CC(=O)Nc1cccc2c(-c3ccc4[nH]nc(-c5nc6ccccc6[nH]5)c4c3)cncc12 [Example 56, N-{4-[3-(1H-Benzoimidazol-2-yl)1H-indazol-5-yl]-isoquinolin-8-yl}-acetamide]	1	36	IC50 (HCT 116 cell line; [1]): 0.48 µM; IC90 (HCT 116 cell line; [2]): 1.3 µM
c1ccc(CNc2cccc3c(-c4ccc5[nH]nc(-c6nc7ccccc7[nH]6)c5c4)cncc23)cc1 [Example 57]	37	650	IC50 (HCT 116 cell line; HCT-116, read-out: HCT 116 IC50 (uM)): 2 µM; IC90 (HCT 116 cell line; HCT-116, read-out: HCT 116 IC90 (uM)): 5 µM
Cc1c(-c2ccc3[nH]nc(-c4nc5ccccc5[nH]4)c3c2)cncc1-c1ccccn1 [Example 62]	3.7	50	IC50 (HCT 116 cell line; [1]): 1 µM; IC90 (HCT 116 cell line; [2]): 2.4 µM
CC(=O)N1CCCc2c(-c3ccc4[nH]nc(-c5nc6ccccc6[nH]5)c4c3)cncc21 [Example 63, 1-{5-[3-(1H-Benzoimidazol-2yl)-1H-indazol-5-yl]-3,4-dihydro-2H-[1,7]naphthyridin-1-yl}-ethanone]	1.2	220	IC50 (HCT 116 cell line; [1]): 0.43 µM; IC90 (HCT 116 cell line; [2]): 1.3 µM
Cc1c(C(N)=O)cncc1-c1ccc2[nH]nc(-c3nc4ccccc4[nH]3)c2c1 [Example 64, 5-[3-(1H-Benzoimidazol-2-yl)-1H-indazol-5-yl]-4-methyl-nicotinamide]	14	190	IC50 (HCT 116 cell line; [1]): 1.3 µM; IC90 (HCT 116 cell line; [2]): 5 µM
CCNCc1cncc(-c2ccc3[nH]nc(-c4nc5c(C(=O)NC)cccc5[nH]4)c3c2)c1C [Example 80, 2-[5-(5-Ethylaminomethyl-4-methyl-pyridin-3-yl)-1H-indazol-3-yl]-1H benzoimidazole-4carboxylic acid methylamide]	–	14	IC90 (HCT 116 cell line; [2]): 0.22 µM
CCNCc1cncc(-c2ccc3[nH]nc(-c4nc5c(NC(C)=O)cccc5[nH]4)c3c2)c1C [Example 82, N-2-[5-(5-Ethylaminomethyl-4-methyl-pyridin-3-yl)-1H-indazol-3-yl-1 benzoimidazol-4-yl]-acetamide]	–	110	IC90 (HCT 116 cell line; [2]): > 0.5 µM
Fc1cccc(F)c1-c1ccc2[nH]nc(-c3ccccc3)c2c1 [Example 83, 5-(2,6-Difluorophenyl)-3-Phenyl-1H-indazole]	–	–	inhibition at 10 µM (CDK2/cyclin A): 30%; inhibition at 10 µM (CDK4/cyclin D3): 30%
c1ccc(CNc2ccc3[nH]nc(-c4ccc[nH]4)c3c2)cc1 [Example 85, 5-(Benzylamino)-3-(2-Pyrrolyl)-1H-indazole]	6600	16000	–
COc1cccc(-c2ccc3[nH]nc(-c4ccccc4)c3c2)c1 [Example 86, 5-(3-Methoxyphenyl)-3-(phenyl)-1H-indazole]	–	–	inhibition at 10 µM (CDK2/cyclin A): 45%; inhibition at 10 µM (CDK4/cyclin D3): 18%
O=[N+]([O-])c1ccc2[nH]nc(-c3ccccc3)c2c1 [Intermediate 11a, 5-Nitro-3-phenyl-1H-indazole]	13000	–	inhibition at 100 µM (CDK4/cyclin D3; read-out: CDK4/D % inhibition at 100 μM): 48%
